Values joined by “and” are separate entries in the source; they are usually repeats but may differ in a detail not shown here. Equal values may be shown once.
Test: LHGFR expressed in E. coli BL21(DE3), response to exogenous L-2-HG (time course and dose-response)
Format: cell-based
Conditions: Fig. 5a
Procedure: To characterize the sensitivity and specificity of LHGFR expressed in E. coli BL21(DE3), 90 μL cell suspensions following 8 h carbon starvation were mixed with 10 μL increasing concentrations of L-2-HG or other compounds, and then added into a black 96-well plate (total 100 μL/per well), the fluorescence intensities were determined using an EnSight microplate reader (PerkinElmer, USA) and the following instrument settings: excitation at 430 nm, emission at 485 nm (mTFP) and 528 nm (Venus), time intervals of 5 min, the temperature at 37 °C, and shake at 180 rpm.

**Q.** What does the source list for `O=C(O)CC[C@H](O)C(=O)O` [L-2-HG, L-2-Hydroxyglutarate]?
**A.** Emission ratio (0.1 μM L-2-HG, 0 min): 1.012 and 0.989 and 0.997; Emission ratio (0.1 μM L-2-HG, 5 min): 1.02 and 0.9981 and 1.004; Emission ratio (0.1 μM L-2-HG, 10 min): 1.016 and 1.0025 and 1.009; Emission ratio (0.1 μM L-2-HG, 15 min): 1.023 and 1.007 and 1.026; Emission ratio (0.1 μM L-2-HG, 20 min): 1.034 and 1.009 and 1.038; Emission ratio (0.1 μM L-2-HG, 25 min): 1.022 and 1.0081 and 1.026; Emission ratio (0.1 μM L-2-HG, 30 min): 1.026 and 1.01 and 1.02; Emission ratio (0.1 μM L-2-HG, 35 min): 1.021 and 1.007 and 1.025; Emission ratio (0.1 μM L-2-HG, 40 min): 1.033 and 1.012 and 1.025; Emission ratio (0.1 μM L-2-HG, 45 min): 1.028 and 1.004 and 1.026; Emission ratio (0.1 μM L-2-HG, 50 min): 1.037 and 1.012 and 1.035; Emission ratio (0.1 μM L-2-HG, 55 min): 1.031 and 1.006 and 1.033; Emission ratio (0.1 μM L-2-HG, 60 min): 1.022 (2×) and 1.012; Emission ratio (0.1 μM L-2-HG, 65 min): 1.024 and 1.014 and 1.029; Emission ratio (0.1 μM L-2-HG, 70 min): 1.0212 and 1.016 and 1.02; Emission ratio (0.1 μM L-2-HG, 75 min): 1.025 (2×) and 1.033; Emission ratio (0.1 μM L-2-HG, 80 min): 1.031 and 1.009 and 1.021; Emission ratio (0.1 μM L-2-HG, 85 min): 1.0115 and 1.016 and 1.023; Emission ratio (0.1 μM L-2-HG, 90 min): 1.021 (2×) and 1.032; Emission ratio (1 μM L-2-HG, 0 min): 0.9972 and 0.975 and 0.9871; Emission ratio (1 μM L-2-HG, 5 min): 1.009 and 0.9962 and 0.9991; Emission ratio (1 μM L-2-HG, 10 min): 1.023 and 0.9982 and 1.005; Emission ratio (1 μM L-2-HG, 15 min): 1.0208 and 0.9996 and 1.009; Emission ratio (1 μM L-2-HG, 20 min): 1.0328 and 1.012 and 1.019; Emission ratio (1 μM L-2-HG, 25 min): 1.021 and 1.008 and 1.022; Emission ratio (1 μM L-2-HG, 30 min): 1.0327 and 1.008 (2×); Emission ratio (1 μM L-2-HG, 35 min): 1.03 and 0.9986 and 1.019; Emission ratio (1 μM L-2-HG, 40 min): 1.036 and 1.0055 and 1.012; Emission ratio (1 μM L-2-HG, 45 min): 1.034 and 0.9995 and 1.022; Emission ratio (1 μM L-2-HG, 50 min): 1.045 and 1.003 and 1.021; Emission ratio (1 μM L-2-HG, 55 min): 1.024 and 1.003 and 1.034; Emission ratio (1 μM L-2-HG, 60 min): 1.027 and 1.003 and 1.025; Emission ratio (1 μM L-2-HG, 65 min): 1.026 and 0.994 and 1.032; Emission ratio (1 μM L-2-HG, 70 min): 1.026 and 0.9971 and 1.03; Emission ratio (1 μM L-2-HG, 75 min): 1.025 and 1.005 and 1.037; Emission ratio (1 μM L-2-HG, 80 min): 1.033 (2×) and 0.9987; Emission ratio (1 μM L-2-HG, 85 min): 1.013 and 1.0091 and 1.026; Emission ratio (1 μM L-2-HG, 90 min): 1.034 and 1.005 and 1.032; Emission ratio (10 μM L-2-HG, 0 min): 0.9974 and 0.9749 and 0.9795; Emission ratio (10 μM L-2-HG, 5 min): 1.027 and 0.9941 and 0.9973; Emission ratio (10 μM L-2-HG, 10 min): 1.031 and 0.9958 and 1.001; Emission ratio (10 μM L-2-HG, 15 min): 1.0289 and 1.0021 and 1.009; Emission ratio (10 μM L-2-HG, 20 min): 1.045 and 1 and 1.01; Emission ratio (10 μM L-2-HG, 25 min): 1.039 and 0.9977 and 1.015; Emission ratio (10 μM L-2-HG, 30 min): 1.037 and 0.9978 and 1.007; Emission ratio (10 μM L-2-HG, 35 min): 1.04 and 1.003 and 1.015; Emission ratio (10 μM L-2-HG, 40 min): 1.03 and 1 and 1.011; Emission ratio (10 μM L-2-HG, 45 min): 1.029 and 1.001 and 1.0118; Emission ratio (10 μM L-2-HG, 50 min): 1.038 and 1.001 and 1.016; Emission ratio (10 μM L-2-HG, 55 min): 1.018 and 0.9882 and 1.017; Emission ratio (10 μM L-2-HG, 60 min): 1.019 (2×) and 0.997; Emission ratio (10 μM L-2-HG, 65 min): 1.0139 and 0.9961 and 1.023; Emission ratio (10 μM L-2-HG, 70 min): 1.0139 and 0.9946 and 1.028; Emission ratio (10 μM L-2-HG, 75 min): 1.017 and 0.9951 and 1.034; Emission ratio (10 μM L-2-HG, 80 min): 1.022 and 0.9886 and 1.029; Emission ratio (10 μM L-2-HG, 85 min): 1.023 and 0.9843 and 1.034; Emission ratio (10 μM L-2-HG, 90 min): 1.009 and 0.9801 and 1.033; Emission ratio (20 μM L-2-HG, 0 min): 0.9789 and 0.9659 and 0.9802; Emission ratio (20 μM L-2-HG, 5 min): 0.9958 and 0.9868 and 0.9915; Emission ratio (20 μM L-2-HG, 10 min): 1.008 and 0.9945 and 0.999; Emission ratio (20 μM L-2-HG, 15 min): 1.027 and 1.004 and 1.005; Emission ratio (20 μM L-2-HG, 20 min): 1.024 and 1.0082 and 1; Emission ratio (20 μM L-2-HG, 25 min): 1.026 and 1.013 and 1.0078; Emission ratio (20 μM L-2-HG, 30 min): 1.036 and 1.005 and 1.016; Emission ratio (20 μM L-2-HG, 35 min): 1.021 and 1.001 and 1.019; Emission ratio (20 μM L-2-HG, 40 min): 1.043 and 1.002 and 1.018; Emission ratio (20 μM L-2-HG, 45 min): 1.041 and 1.009 and 1.022; Emission ratio (20 μM L-2-HG, 50 min): 1.04 and 1.006 and 1.0167; Emission ratio (20 μM L-2-HG, 55 min): 1.015 and 1.004 and 1.027; Emission ratio (20 μM L-2-HG, 60 min): 1.0355 and 0.9994 and 1.024; Emission ratio (20 μM L-2-HG, 65 min): 1.024 and 1.003 and 1.019; Emission ratio (20 μM L-2-HG, 70 min): 1.023 and 0.9958 and 1.025; Emission ratio (20 μM L-2-HG, 75 min): 1.0243 and 1.007 and 1.0344; Emission ratio (20 μM L-2-HG, 80 min): 1.023 and 0.9899 and 1.029; Emission ratio (20 μM L-2-HG, 85 min): 1.012 and 1.001 and 1.028; Emission ratio (20 μM L-2-HG, 90 min): 1.022 and 0.9961 and 1.035; Emission ratio (100 μM L-2-HG, 0 min): 0.9864 and 0.9735 and 0.9711; Emission ratio (100 μM L-2-HG, 5 min): 1.005 and 0.9924 and 0.9939; Emission ratio (100 μM L-2-HG, 10 min): 1.009 and 1.008 and 1.012; Emission ratio (100 μM L-2-HG, 15 min): 1.0245 and 1.016 and 1.019; Emission ratio (100 μM L-2-HG, 20 min): 1.0318 and 1.022 and 1.0268; Emission ratio (100 μM L-2-HG, 25 min): 1.0276 and 1.029 and 1.024; Emission ratio (100 μM L-2-HG, 30 min): 1.034 and 1.025 and 1.028; Emission ratio (100 μM L-2-HG, 35 min): 1.039 and 1.026 and 1.037; Emission ratio (100 μM L-2-HG, 40 min): 1.0304 and 1.029 and 1.028

— article PMC8206213, “An L-2-hydroxyglutarate biosensor based on specific transcriptional regulator LhgR” (Nature Communications, 2021)
